Reference: ChEMBL document CHEMBL1151757, “Synthesis, radiosynthesis, and biological evaluation of fluorine-18-labeled 2beta-carbo(fluoroalkoxy)-3beta-(3'-((Z)-2-haloethenyl)phenyl)nortropanes: candidate radioligands for in vivo imaging of the serotonin transporter with positron emission tomography” (J Med Chem, 2008)

What was measured:
[1] = Drug uptake in anesthetized cynomolgus monkey brain frontal lobe after 55 mins postinjection; type: ADME, organism-based, Macaca fascicularis; conditions: in vivo
Pons [2] = assay: Drug uptake in anesthetized cynomolgus monkey brain pons after 115 mins postinjection; type: ADME, organism-based, Macaca fascicularis; conditions: in vivo
Pons [3] = assay: Drug uptake in anesthetized cynomolgus monkey brain pons after 85 mins postinjection; type: ADME, organism-based, Macaca fascicularis; conditions: in vivo
Putamen [4] = assay: Drug uptake in anesthetized cynomolgus monkey brain putamen after 65 mins postinjection; type: ADME, organism-based, Macaca fascicularis; design: unit not given here; conditions: in vivo
Pons [5] = assay: Drug uptake in anesthetized cynomolgus monkey brain pons after 185 mins postinjection; type: ADME, organism-based, Macaca fascicularis; conditions: in vivo
[6] = Drug uptake in anesthetized cynomolgus monkey brain cerebellum after 1.5 mins postinjection; type: ADME, organism-based, Macaca fascicularis; conditions: in vivo, 0.025 h
[7] = Ratio of drug uptake in frontal lobe to cerebellum in anesthetized cynomolgus monkey after 195 mins postinjection; type: ADME, organism-based, Macaca fascicularis; conditions: in vivo, 3.25 h
[8] = Ratio of drug uptake in frontal lobe to cerebellum in anesthetized cynomolgus monkey after 75 mins postinjection; type: ADME, organism-based, Macaca fascicularis; conditions: in vivo, 1.25 h
[9] = Drug uptake in anesthetized cynomolgus monkey brain frontal lobe after 215 mins postinjection; type: ADME, organism-based, Macaca fascicularis; conditions: in vivo
Thalamus [10] = assay: Drug uptake in anesthetized cynomolgus monkey brain thalamus after 9.5 mins postinjection; type: ADME, organism-based, Macaca fascicularis; design: unit not given here; conditions: in vivo
[11] = Drug uptake in anesthetized cynomolgus monkey brain frontal lobe after 3.5 mins postinjection; type: ADME, organism-based, Macaca fascicularis; conditions: in vivo
[12] = Ratio of drug uptake in pons to cerebellum in anesthetized cynomolgus monkey after 145 mins postinjection; type: ADME, organism-based, Macaca fascicularis; conditions: in vivo
[13] = Ratio of drug uptake in midbrain to cerebellum in anesthetized cynomolgus monkey after 225 mins postinjection; type: ADME, organism-based, Macaca fascicularis; conditions: in vivo, 3.75 h
[14] = Ratio of drug uptake in thalamus to cerebellum in anesthetized cynomolgus monkey after 195 mins postinjection; type: ADME, organism-based, Macaca fascicularis; conditions: in vivo, 3.25 h
Putamen [15] = assay: Drug uptake in anesthetized cynomolgus monkey brain putamen after 205 mins postinjection; type: ADME, organism-based, Macaca fascicularis; conditions: in vivo
[16] = Ratio of drug uptake in midbrain to cerebellum in anesthetized cynomolgus monkey after 95 mins postinjection; type: ADME, organism-based, Macaca fascicularis; conditions: in vivo
[17] = Drug uptake in anesthetized cynomolgus monkey brain cerebellum after 4.5 mins postinjection; type: ADME, organism-based, Macaca fascicularis; conditions: in vivo, 0.075 h
[18] = Drug uptake in anesthetized cynomolgus monkey brain occipital lobe after 145 mins postinjection; type: ADME, organism-based, Macaca fascicularis; conditions: in vivo
[19] = Ratio of drug uptake in medulla to cerebellum in anesthetized cynomolgus monkey after 195 mins postinjection; type: ADME, organism-based, Macaca fascicularis; conditions: in vivo, 3.25 h
[20] = Ratio of drug uptake in caudate to cerebellum in anesthetized cynomolgus monkey after 55 mins postinjection; type: ADME, organism-based, Macaca fascicularis; conditions: in vivo
Thalamus [21] = assay: Drug uptake in anesthetized cynomolgus monkey brain thalamus after 145 mins postinjection; type: ADME, organism-based, Macaca fascicularis; design: unit not given here; conditions: in vivo
[22] = Ratio of drug uptake in putamen to cerebellum in anesthetized cynomolgus monkey after 215 mins postinjection; type: ADME, organism-based, Macaca fascicularis; conditions: in vivo
Pons [23] = assay: Drug uptake in anesthetized cynomolgus monkey brain pons after 135 mins postinjection; type: ADME, organism-based, Macaca fascicularis; conditions: in vivo, 2.25 h
[24] = Drug uptake in anesthetized cynomolgus monkey brain frontal lobe after 35 mins postinjection; type: ADME, organism-based, Macaca fascicularis; conditions: in vivo
[25] = Ratio of drug uptake in medulla to cerebellum in anesthetized cynomolgus monkey after 65 mins postinjection; type: ADME, organism-based, Macaca fascicularis; conditions: in vivo
Pons [26] = assay: Drug uptake in anesthetized cynomolgus monkey brain pons after 165 mins postinjection; type: ADME, organism-based, Macaca fascicularis; conditions: in vivo, 2.75 h
[27] = Ratio of drug uptake in caudate to cerebellum in anesthetized cynomolgus monkey after 12.5 mins postinjection; type: ADME, organism-based, Macaca fascicularis; conditions: in vivo
[28] = Ratio of drug uptake in midbrain to cerebellum in anesthetized cynomolgus monkey after 22.5 mins postinjection; type: ADME, organism-based, Macaca fascicularis; conditions: in vivo, 0.375 h
[29] = Drug uptake in anesthetized cynomolgus monkey brain cerebellum after 95 mins postinjection; type: ADME, organism-based, Macaca fascicularis; conditions: in vivo
Pons [30] = assay: Drug uptake in anesthetized cynomolgus monkey brain pons after 175 mins postinjection; type: ADME, organism-based, Macaca fascicularis; conditions: in vivo
Caudate [31] = assay: Drug uptake in anesthetized cynomolgus monkey brain caudate after 155 mins postinjection; type: ADME, organism-based, Macaca fascicularis, Caudate nucleus; conditions: in vivo
[32] = Drug uptake in anesthetized cynomolgus monkey brain occipital lobe after 125 mins postinjection; type: ADME, organism-based, Macaca fascicularis; conditions: in vivo
[33] = Drug uptake in anesthetized cynomolgus monkey brain cerebellum after 235 mins postinjection; type: ADME, organism-based, Macaca fascicularis; conditions: in vivo
Thalamus [34] = assay: Drug uptake in anesthetized cynomolgus monkey brain thalamus after 195 mins postinjection; type: ADME, organism-based, Macaca fascicularis; conditions: in vivo, 3.25 h
Putamen [35] = assay: Drug uptake in anesthetized cynomolgus monkey brain putamen after 155 mins postinjection; type: ADME, organism-based, Macaca fascicularis; conditions: in vivo
[36] = Ratio of drug uptake in thalamus to cerebellum in anesthetized cynomolgus monkey after 27.5 mins postinjection; type: ADME, organism-based, Macaca fascicularis; conditions: in vivo
[37] = Drug uptake in anesthetized cynomolgus monkey brain frontal lobe after 155 mins postinjection; type: ADME, organism-based, Macaca fascicularis; conditions: in vivo
[38] = Ratio of drug uptake in putamen to cerebellum in anesthetized cynomolgus monkey after 75 mins postinjection; type: ADME, organism-based, Macaca fascicularis; conditions: in vivo, 1.25 h
[39] = Drug uptake in anesthetized cynomolgus monkey brain occipital lobe after 165 mins postinjection; type: ADME, organism-based, Macaca fascicularis; conditions: in vivo, 2.75 h
[40] = Drug uptake in anesthetized cynomolgus monkey brain occipital lobe after 235 mins postinjection; type: ADME, organism-based, Macaca fascicularis; conditions: in vivo
[41] = Drug uptake in anesthetized cynomolgus monkey brain frontal lobe after 195 mins postinjection; type: ADME, organism-based, Macaca fascicularis; conditions: in vivo, 3.25 h
Pons [42] = assay: Drug uptake in anesthetized cynomolgus monkey brain pons after 9.5 mins postinjection; type: ADME, organism-based, Macaca fascicularis; conditions: in vivo
[43] = Drug uptake in anesthetized cynomolgus monkey brain frontal lobe after 4.5 mins postinjection; type: ADME, organism-based, Macaca fascicularis; conditions: in vivo, 0.075 h
[44] = Ratio of drug uptake in pons to cerebellum in anesthetized cynomolgus monkey after 175 mins postinjection; type: ADME, organism-based, Macaca fascicularis; conditions: in vivo
Pons [45] = assay: Drug uptake in anesthetized cynomolgus monkey brain pons after 4.5 mins postinjection; type: ADME, organism-based, Macaca fascicularis; conditions: in vivo, 0.075 h
Caudate [46] = assay: Drug uptake in anesthetized cynomolgus monkey brain caudate after 165 mins postinjection; type: ADME, organism-based, Macaca fascicularis, Caudate nucleus; conditions: in vivo, 2.75 h
[47] = Drug uptake in anesthetized cynomolgus monkey brain frontal lobe after 6.5 mins postinjection; type: ADME, organism-based, Macaca fascicularis; conditions: in vivo
[48] = Ratio of drug uptake in pons to cerebellum in anesthetized cynomolgus monkey after 225 mins postinjection; type: ADME, organism-based, Macaca fascicularis; conditions: in vivo, 3.75 h
Medulla [49] = assay: Drug uptake in anesthetized cynomolgus monkey brain medulla after 22.5 mins postinjection; type: ADME, organism-based, Macaca fascicularis; conditions: in vivo, 0.375 h
[50] = Drug uptake in anesthetized cynomolgus monkey brain occipital lobe after 175 mins postinjection; type: ADME, organism-based, Macaca fascicularis; conditions: in vivo
Medulla [51] = assay: Drug uptake in anesthetized cynomolgus monkey brain medulla after 115 mins postinjection; type: ADME, organism-based, Macaca fascicularis; conditions: in vivo
Putamen [52] = assay: Drug uptake in anesthetized cynomolgus monkey brain putamen after 75 mins postinjection; type: ADME, organism-based, Macaca fascicularis; design: unit not given here; conditions: in vivo, 1.25 h
[53] = Drug uptake in anesthetized cynomolgus monkey brain occipital lobe after 215 mins postinjection; type: ADME, organism-based, Macaca fascicularis; conditions: in vivo
[54] = Drug uptake in anesthetized cynomolgus monkey brain occipital lobe after 15.5 mins postinjection; type: ADME, organism-based, Macaca fascicularis; conditions: in vivo
[55] = Ratio of drug uptake in frontal lobe to cerebellum in anesthetized cynomolgus monkey after 95 mins postinjection; type: ADME, organism-based, Macaca fascicularis; conditions: in vivo
Thalamus [56] = assay: Drug uptake in anesthetized cynomolgus monkey brain thalamus after 0.5 mins postinjection; type: ADME, organism-based, Macaca fascicularis; conditions: in vivo
Medulla [57] = assay: Drug uptake in anesthetized cynomolgus monkey brain medulla after 6.5 mins postinjection; type: ADME, organism-based, Macaca fascicularis; conditions: in vivo
[58] = Drug uptake in anesthetized cynomolgus monkey brain cerebellum after 165 mins postinjection; type: ADME, organism-based, Macaca fascicularis; conditions: in vivo, 2.75 h
Putamen [59] = assay: Drug uptake in anesthetized cynomolgus monkey brain putamen after 18.5 mins postinjection; type: ADME, organism-based, Macaca fascicularis; design: unit not given here; conditions: in vivo
Caudate [60] = assay: Drug uptake in anesthetized cynomolgus monkey brain caudate after 3.5 mins postinjection; type: ADME, organism-based, Macaca fascicularis, Caudate nucleus; conditions: in vivo
[61] = Drug uptake in anesthetized cynomolgus monkey brain cerebellum after 12.5 mins postinjection; type: ADME, organism-based, Macaca fascicularis; conditions: in vivo
Thalamus [62] = assay: Drug uptake in anesthetized cynomolgus monkey brain thalamus after 18.5 mins postinjection; type: ADME, organism-based, Macaca fascicularis; design: unit not given here; conditions: in vivo
Thalamus [63] = assay: Drug uptake in anesthetized cynomolgus monkey brain thalamus after 65 mins postinjection; type: ADME, organism-based, Macaca fascicularis; design: unit not given here; conditions: in vivo
Caudate [64] = assay: Drug uptake in anesthetized cynomolgus monkey brain caudate after 27.5 mins postinjection; type: ADME, organism-based, Macaca fascicularis, Caudate nucleus; conditions: in vivo
Midbrain = assay: Drug uptake in anesthetized cynomolgus monkey brain midbrain after 145 mins postinjection; type: ADME, organism-based, Macaca fascicularis; conditions: in vivo
Putamen [65] = assay: Drug uptake in anesthetized cynomolgus monkey brain putamen after 1.5 mins postinjection; type: ADME, organism-based, Macaca fascicularis; conditions: in vivo, 0.025 h
[66] = Drug uptake in anesthetized cynomolgus monkey brain cerebellum after 0.5 mins postinjection; type: ADME, organism-based, Macaca fascicularis; conditions: in vivo
[67] = Drug uptake in anesthetized cynomolgus monkey brain occipital lobe after 1.5 mins postinjection; type: ADME, organism-based, Macaca fascicularis; conditions: in vivo, 0.025 h

O=C(OCCC[18F])C1C2CCC(CC1c1cccc(/C=C\I)c1)N2 (stereo not drawn)
Drug uptake [1]: 2.82
Drug uptake (Pons [2]): 3.98
Drug uptake (Pons [3]): 4.12
Drug uptake (Putamen [4]): 4.95
Drug uptake (Pons [5]): 3.31
Drug uptake [6]: 0.27
Ratio [7]: 0.9
Ratio [8]: 0.7
Drug uptake [9]: 1.99
Drug uptake (Thalamus [10]): 3.45
Drug uptake [11]: 0.83
Ratio [12]: 1.6
Ratio [13]: 2
Ratio [14]: 1.5
Drug uptake (Putamen [15]): 3.31
Ratio [16]: 1.4
Drug uptake [17]: 2.5
Drug uptake [18]: 2.82
Ratio [19]: 1.7
Ratio [20]: 0.9
Drug uptake (Thalamus [21]): 3.93
Ratio [22]: 1.5
Drug uptake (Pons [23]): 4.08
Drug uptake [24]: 2.85
Ratio [25]: 1.2
Drug uptake (Pons [26]): 3.73
Ratio [27]: 0.7
Ratio [28]: 1
Drug uptake [29]: 3.46
Drug uptake (Pons [30]): 3.41
Drug uptake (Caudate [31]): 3.19
Drug uptake [32]: 2.96
Drug uptake [33]: 1.93
Drug uptake (Thalamus [34]): 3.2
Drug uptake (Putamen [35]): 3.8
Ratio [36]: 1
Drug uptake [37]: 2.33
Ratio [38]: 1.3
Drug uptake [39]: 2.59
Drug uptake [40]: 1.99
Drug uptake [41]: 1.96
Drug uptake (Pons [42]): 3.47
Drug uptake [43]: 1.31
Ratio [44]: 1.4
Drug uptake (Pons [45]): 1.92
Drug uptake (Caudate [46]): 3.04
Drug uptake [47]: 1.88
Ratio [48]: 1.7
Drug uptake (Medulla [49]): 4.94
Drug uptake [50]: 2.55
Drug uptake (Medulla [51]): 4.59
Drug uptake (Putamen [52]): 4.92
Drug uptake [53]: 2.08
Drug uptake [54]: 3.53
Ratio [55]: 0.8
Drug uptake (Thalamus [56]): 0.01
Drug uptake (Medulla [57]): 3.75
Drug uptake [58]: 2.37
Drug uptake (Putamen [59]): 4.42
Drug uptake (Caudate [60]): 1.15
Drug uptake [61]: 4.52
Drug uptake (Thalamus [62]): 4.22
Drug uptake (Thalamus [63]): 4.79
Drug uptake (Caudate [64]): 3.68
Drug uptake (Midbrain): 4.38
Drug uptake (Putamen [65]): 0.27
Drug uptake [66]: 0.01
Drug uptake [67]: 0.19
